Patent US5698401A, “Use of nuclear magnetic resonance to identify ligands to target biomolecules” (priority 1995, dated 1997)
Like-named read-outs stand apart in the source and are kept apart here.

Legend:
Stromelysin = target: T1, Stromelysin (Homo sapiens, UniProt P08254); assay: Inhibition of degradation (autolysis) of stromelysin; assay type: biochemical; conditions: 500 mM
T1 construct: initiating methionine (N); made in house; host or cells: E. coli BL21(DE3)/pLysS, pET3d
Protocol: Studies were performed to design new ligands that bound to the catalytic domain of stromelysin. Because stromelysin undergoes autolysis, an inhibitor was sought to block the degradation of stromelysin. That inhibitor would facilitate the screening of other potential ligands that bind to other sites on the enzyme.
A variety of hydroxamic acids of the general formula R-(CO)NHOH were screened for binding to stromelysin using the procedures set forth in Example 2.

Water solubility = assay type: physicochemical
[1] = target: T2, catalytic domain of stromelysin (Homo sapiens, UniProt P08254); assay: NMR binding (2D 15N/1H HSQC) to the catalytic domain of stromelysin
T2 construct: initiating methionine (N); made in house; host or cells: E. coli BL21(DE3)/pLysS, pET3d
Protocol: The catalytic domain of stromelysin was prepared in accordance with the procedures of Example 1. The protein solutions used in the screening assay contained the uniformly ^15 N-labeled catalytic domain of stromelysin (0.3 mM), acetohydroxamic acid (500 mM), CaCl2 (20 mM), and sodium azide (0.5%) in a H2 O/D2 O (9/1) TRIS buffered solution (50 mM, pH=7.0).
Two-dimensional ^15 N/^1 H NMR spectra were generated at 29° C. on a Bruker AMX500 NMR spectrometer equipped with a triple resonance probe and Bruker sample changer. The ^15 N/^1 H HSQC spectra were acquired as 80x1024 complex points using sweep widths of 2000 Hz (^15 N, t^1) and 8333 Hz (^1 H, t2). […] All NMR spectra were processed and analyzed on Silicon Graphics computers using in-house-written software. […]
Various biaryl compounds of structure I were tested for binding to stromelysin at differing concentrations. The ^15 N/^1 H spectra generated at each concentration were evaluated to quantify differences in the spectra as a function of compound concentration. A binding or dissociation constant (KD)was calculated, using standard procedures well known in the art, from those differences. […]
In a first study, binding constants were determined, both by the NMR method of the present invention, and by a prior an enzymatic assay. […] The KD values so obtained were compared to an inhibition constant KI as determined in an enzymatic assay. […]

[2] = target: T2, catalytic domain of stromelysin; assay: Enzymatic assay, cleavage of a fluorogenic substrate by stromelysin; assay type: biochemical
Protocol: The target molecule was the catalytic domain of stromelysin prepared in accordance with the procedures of Example 1. […] The KD values so obtained were compared to an inhibition constant KI as determined in an enzymatic assay.
The enzymatic assay measured the rate of cleavage of a fluorogenic substrate by following the fluorescence increase upon peptide cleavage which causes a separation between the fluorophore and quencher. Enzymatic activity was measured using a matrix of different concentrations of acetohydroxamic acid and biaryl compounds.
Individual compound concentration varied due to solubility and potency.
All NMR measurements were performed in the presence of 500 mM acetohydroxamic acid, except for the titration of acetohydroxamic acid itself. Dissociation constants were obtained from the dependence of the observed chemical shift changes upon added ligand. Inhibition constants were then obtained from the inhibition data using standard procedures.

T2 sequence (P08254 100-273): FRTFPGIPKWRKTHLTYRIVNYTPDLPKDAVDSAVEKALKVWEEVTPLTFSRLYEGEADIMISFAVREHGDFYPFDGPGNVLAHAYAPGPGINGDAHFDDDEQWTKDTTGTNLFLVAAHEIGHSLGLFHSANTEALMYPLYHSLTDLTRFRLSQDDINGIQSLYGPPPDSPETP
T1 sequence (P08254 100-273): as above

| SMILES | inhibition of the degradation of the enzyme (Stromelysin) | water solubility (Water solubility) | Kd [1] [µM] | Kd ([1]; Table 3, in the presence of 500 mM acetohydroxamic acid, read-out: NMR KD) [µM] | Ki [2] [µM] |
| --- | --- | --- | --- | --- | --- |
| CC(=O)NO [Acetohydroxamic acid, acetohydroxamic acid] | inhibited the degradation of the enzyme | good water solubility | – | – | – |
| c1ccc(-c2ccncc2)cc1 [Compound 7] | – | – | 200 | 170 | 320 |
